Type in all cases: functional
Holding throughout (conditions): read-out: IZ

The subject of assay [1] is Lachnellula. The assay can be described thus: Inhibition of DHN-melanin biosynthesis in Lachnellula sp. A32-89 assessed as pigment inhibition zone at 50 ug/disk by agar diffusion assay.
Assay [2] deals with Rhizomucor miehei. The assay can be described thus: Antimicrobial activity against Mucor miehei at 50 ug/disk.
Assay [3] deals with Bacillus subtilis. The assay can be described thus: Antimicrobial activity against Bacillus subtilis at 50 ug/disk.

In the case of `CC1=CC2=C(CO1)C(=O)c1c(O)cc(O)cc1C2=O`, the zone of inhibition at 50 µg/disc in assay [1] worked out at 14 mm.

For the compound `COc1cc(O)c2c(c1)C(=O)C1=C(COC(C)=C1)C2=O`, the zone of inhibition at 50 µg/disc in assay [1] came to 14 mm. Turning to `C/C=C/C1=CC2=CC(=O)[C@@]3(C)OC(=O)C(C(C)=O)=C3C2=CO1` [TRICHOFLECTIN], the zone of inhibition at 50 µg/disc is 19 mm in assay [1], 23 mm in assay [2] and 23 mm in assay [3].

Source of the values: ChEMBL document CHEMBL1150870, “Trichoflectin, a bioactive azaphilone from the ascomycete Trichopezizella nidulus” (1998).
